The melting point is the temperature, or range, at which the solid turns liquid.

Molecules are shown by their SMILES. Where a name gives a salt, the structure may show the parent alone.

With `C=CCN(CCCCNC(=O)c1ccc2ccccc2c1)C1CCc2ncsc2C1` (stereo not shown) (as salt: salt) [Compound 6, Naphthalene-2-carboxylic acid {4-[allyl-(4,5,6,7-tetrahydro-benzothiazol-6-yl)-amino]-butyl}-amide], the melting point is 128 °C.
With `C#CCN(CCCCNC(=O)c1ccc2ccccc2c1)C1CCc2ncsc2C1` (stereo not shown) (as salt: salt) [Compound 7, Naphthalene-2-carboxylic acid {4-[prop-2-ynyl-(4,5,6,7-tetrahydro-benzothiazol-6-yl)-amino]-butyl}-amide], the melting point came out at 126 °C.
Next, `CC#CCN(CCCCNC(=O)c1ccc2ccccc2c1)C1CCc2ncsc2C1` (stereo not shown) (as salt: salt) [Compound 8, Naphthalene-2-carboxylic acid {4-[but-2-ynyl-(4,5,6,7-tetrahydro-benzothiazol-6-yl)-amino]-butyl}-amide]: 147 °C.
With `CCCN(CCCCC(=O)Nc1ccc2ccccc2c1)C1CCc2ncsc2C1` (stereo not shown) (as salt: salt) [Compound 9, 5-[Propyl-(4,5,6,7-tetrahydro-benzothiazol-6-yl)-amino]-pentanoic acid naphthalen-2-ylamide], the melting point was found to be 85 °C.
Next, `CN(CCCCNC(=O)c1cc2ccccc2s1)C1CCc2ncsc2C1` (stereo not shown) (as salt: salt) [Compound 11, Benzo[b]thiophene-2-carboxylic acid {4-[methyl-(4,5,6,7-tetrahydro-benzothiazol-6-yl)-amino]-butyl}-amide]: 105 °C; `CCN(CCCCNC(=O)c1cc2ccccc2s1)C1CCc2ncsc2C1` (stereo not shown) (as salt: salt) [Compound 12, Benzo[b]thiophene-2-carboxylic acid {4-[ethyl-(4,5,6,7-tetrahydro-benzothiazol-6-yl)-amino]-butyl}-amide]: 103 °C; `CCN(CCCCNC(=O)c1ccc2ncsc2c1)C1CCc2ncsc2C1` (stereo not shown) (as salt: salt) [Compound 14, Benzothiazole-6-carboxylic acid {4-[ethyl-(4,5,6,7-tetrahydro-benzothiazol-6-yl)-amino]-butyl}-amide]: 106.5 °C.
Next, `CCCN(CCCCNC(=O)C1CCCCC1)C1CCc2ncsc2C1` (stereo not shown) (as salt: salt) [Compound 20, Cyclohexanecarboxylic acid {4-[propyl-(4,5,6,7-tetrahydro-benzothiazol-6-yl)-amino]-butyl}-amide]: 130 °C; `CCCN(CCCCNC(=O)N1CCCCC1)C1CCc2ncsc2C1` (stereo not shown) (as salt: salt) [Compound 21, Piperidine-1-carboxylic acid {4-[propyl-(4,5,6,7-tetrahydro-benzothiazol-6-yl)-amino]-butyl}-amide]: 71 °C; `CCCN(CCCCNC(=O)NC1CCCCC1)C1CCc2ncsc2C1` (stereo not shown) (as salt: salt) [Compound 22, 1-Cyclohexyl-3-{4-[propyl-(4,5,6,7-tetrahydro-benzothiazol-6-yl)-amino]-butyl}-urea]: 149 °C.
Next, `CCCN(CCCCNC(=O)C1CCc2ccccc2C1)C1CCc2ncsc2C1` (stereo not shown) (as salt: salt) [Compound 23, 1,2,3,4-Tetrahydro-naphthalene-2-carboxylic acid {4-[propyl-(4,5,6,7-tetrahydro-benzothiazol-6-yl)-amino]-butyl}-amide]: 138 °C; `CCCN(CCCCNC(=O)N1CCc2ccccc2C1)C1CCc2ncsc2C1` (stereo not shown) (as salt: salt) [Compound 24, 3,4-Dihydro-1H-isoquinoline-2-carboxylic acid {4-[propyl-(4,5,6,7-tetrahydro-benzothiazol-6-yl)-amino]-butyl}-amide]: 125 °C.
As for `CCCN(CCCCNC(=O)N1CCc2cc(OC)c(OC)cc2C1)C1CCc2ncsc2C1` (stereo not shown) (as salt: salt) [Compound 25, 6,7-Dimethoxy-3,4-dihydro-1H-isoquinoline-2-carboxylic acid {4-[propyl-(4,5,6,7-tetrahydro-benzothiazol-6-yl)-amino]-butyl}-amide], the melting point is 106 °C.

Source of the values: US8389555B2, “Medicaments” (Motac Neuroscience Limited, priority 2007, dated 2013).
